Biological target: T1, Human NPY Y5 receptors (Homo sapiens, UniProt Q15761)
T1 construct: expressed in transfected cells; host or cells: CHO cells (membrane protein)
T1 sequence (Q15761 1-445): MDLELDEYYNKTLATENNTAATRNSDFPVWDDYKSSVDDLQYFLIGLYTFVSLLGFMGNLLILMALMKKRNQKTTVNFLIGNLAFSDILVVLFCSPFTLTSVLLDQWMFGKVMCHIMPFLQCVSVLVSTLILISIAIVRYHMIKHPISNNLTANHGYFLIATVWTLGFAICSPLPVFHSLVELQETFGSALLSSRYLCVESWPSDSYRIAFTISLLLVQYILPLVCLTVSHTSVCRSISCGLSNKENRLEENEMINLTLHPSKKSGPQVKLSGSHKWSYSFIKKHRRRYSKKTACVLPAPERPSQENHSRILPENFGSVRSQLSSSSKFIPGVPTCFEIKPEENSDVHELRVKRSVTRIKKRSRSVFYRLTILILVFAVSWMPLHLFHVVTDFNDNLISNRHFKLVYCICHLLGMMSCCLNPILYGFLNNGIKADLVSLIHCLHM
Experiment: NPY Receptor Binding Assay
Conditions: binding affinity at the human neuropeptide Y Y5 receptor subtype (hY5), expressed in CHO cells, 125I-peptide YY
Experimental: NPY Receptor Binding Assay
Human NPY Y5 receptors were expressed in CHO cells. Binding assays were performed in 50 mM HEPES, pH 7.2, 2.5 mM CaCl2, 1 mM MgCl2 and 0.1% BSA containing 5–10 μg of membrane protein and 0.1 nM […] in a total volume of 200 μl. Non-specific binding was determined in the presence of 1 μM NPY. The reaction mixtures were incubated for 90 minutes at room temperature then filtered through Millipore MAFC glass fiber filter plates which had been pre-soaked in 0.5% polyethleneimine. The filters were washed with phosphate-buffered saline, and radioactivity was measured in a Packard TopCount scintillation counter.

## CN(C(=O)Nc1cnn(-c2cc(F)cc(F)c2)c1)C1CCN(S(C)(=O)=O)CC1
  Ki: 2.4 nM

## CN(C(=O)Nc1cnn(-c2cc(F)cc(F)c2)c1)C1CCN(C(=O)OC(C)(C)C)CC1
  Ki: 1.8 nM

## CN(C(=O)Nc1cnn(-c2cc(F)cc(F)c2)c1)C1CCNCC1
  Ki: 276 nM

## CC(=O)N1CCC(N(C)C(=O)Nc2cnn(-c3cc(F)cc(F)c3)c2)CC1
  Ki: 1.6 nM

## CCC(=O)N1CCC(N(C)C(=O)Nc2cnn(-c3cc(F)cc(F)c3)c2)CC1
  Ki: 0.96 nM

## CN(C(=O)Nc1cnn(-c2cc(F)cc(F)c2)c1)C1CCN(C(=O)C2CC2)CC1
  Ki: 1.2 nM

## CC(C)C(=O)N1CCC(N(C)C(=O)Nc2cnn(-c3cc(F)cc(F)c3)c2)CC1
  Ki: 0.7 nM

## CCS(=O)(=O)N1CCC(N(C)C(=O)Nc2cnn(-c3cc(F)cc(F)c3)c2)CC1
  Ki: 0.89 nM

## CC(C)S(=O)(=O)N1CCC(N(C)C(=O)Nc2cnn(-c3cc(F)cc(F)c3)c2)CC1
  Ki: 1.7 nM

Reference: patent publication US7157472B2, “Neuropeptide Y Y5 receptor antagonists” (Schering Corporation, priority 2002, dated 2007)
